Results from US10104891B2 (priority 2014, dated 2018).

How the values were obtained:
Assay type in all cases: in vivo
[1] = tested on: Pseudoperonospora cubensis; assay: Test 2: control effect against cucumber downy mildew; settings: control value vs untreated section; for pest or weed control at 4 µg/mL: Pseudoperonospora cubensis, 120 h
Experimental: (§1) A 10% wettable powder created according to the Pharmaceutical Formulation Example 1 was diluted with a Tween20 solution prepared to a concentration of 1/5000, then the compound of formula [1] was prepared to a concentration of 4 ppm. Further, the compound of formula [1] in Test 4 was adjusted to a concentration of 1,000 ppm.
<Test 2 Test of Control Effect Against Cucumber Downy Mildew>
(§2) Test suspension was applied to cucumber at the 2 leaf stage (species: Sagami hanjiro) in an amount of 20 ml per seedling. One day after application, zoospore suspension of Pseudoperonospora cubensis adjusted to a concentration of 1.0×10^4 units/ml was misted/inoculated, and the seedlings were incubated in a moist chamber adjusted to 22° C. for 16 hr. Then, the onset of the disease was induced in the chamber, and the lesion area rate on the leaves 5 days after inoculation was investigated to compute the control value using the formula below. control value={1−onset area rate of the leaves that were applied the test agent/onset area rate of untreated leaves}×100 Computational formula of the control value: […]

Plasmopara viticola = assay: Test 3: control effect against grape downy mildew; settings: control value vs untreated section; for pest or weed control at 4 µg/mL: Plasmopara viticola, 120 h
Experimental: as §1
<Test 3 Test of Control Effect Against Grape Downy Mildew>
as §2, with “grape seedling” for “cucumber at the 2 leaf stage”, “Neomuscat)” for “Sagami hanjiro)”, “Plasmopara viticola” for “Pseudoperonospora cubensis”

Phytophthora infestans = assay: whole plant or invertebrate; settings: for control value (Test 1): tomato late blight, control value vs untreated section; for pest or weed control at 4 µg/mL: Phytophthora infestans, in Solanum lycopersicum, 96 h, read-out: control value (Test 1)

SMILES | control value (Test 2) [1] | control value (Test 3) (Plasmopara viticola) | control value (Test 1) (Phytophthora infestans) | pest or weed control at 4 µg/mL [1] | pest or weed control at 4 µg/mL (Plasmopara viticola) | pest or weed control at 4 µg/mL (Phytophthora infestans)
CS(=O)(=O)Oc1ccc2c(c1)COC(c1csc(C3CCN(C(=O)Cc4cc(Cl)ccc4Cl)CC3)n1)OC2 (stereo not drawn) [Compound 2-49] | 0 | 100 | 100 |  |  | 
Cc1cc(C(F)(F)F)nn1CC(=O)N1CCC(c2nc(C3OCc4ccc(Br)cc4CO3)cs2)CC1 (stereo not drawn) [Compound 1-98] | 100 | 100 | 100 |  |  | 
O=C(Cn1nc(C(F)F)cc1C(F)F)N1CCC(c2nc(C3OCc4cccc(Cl)c4CO3)cs2)CC1 (stereo not drawn) [Compound 1-58] | 100 | 100 | 100 |  |  | 
CS(=O)(=O)Oc1c(F)ccc2c1COC(c1csc(C3CCN(C(=O)Cc4cc(Cl)ccc4Cl)CC3)n1)OC2 (stereo not drawn) [Compound 2-43, 4-[4-(7-fluoro-6-methylsulfonyloxy-1,5-dihydro-3H-2,4-benzodioxepin-3-yl)-2-thiazolyl]-1-[2-(2,5-dichlorophenyl)acetyl]piperidine] |  |  |  | 100% | 100% | 100%
CS(=O)(=O)Oc1ccc(Br)c2c1COC(c1csc(C3CCN(C(=O)Cn4nc(C(F)(F)F)cc4C(F)(F)F)CC3)n1)OC2 (stereo not drawn) [Compound 1-123, 4-[4-(6-bromo-9-methylsulfonyloxy-1,5-dihydro-3H-2,4-benzodioxepin-3-yl)-2-thiazolyl]-1-[2-[3,5-bis(trifluoromethyl)-1H-pyrazole-1-yl]acetyl]piperidine] |  |  |  | 100% | 100% | 100%
Cc1cc(C(F)(F)F)nn1C(F)(F)C(=O)N1CCC(c2nc(C3OCc4c(F)ccc(OS(C)(=O)=O)c4CO3)cs2)CC1 (stereo not drawn) [Compound 1-155] | 100 | 100 | 100 |  |  | 
Cc1cc(C(F)(F)F)nn1CC(=O)N1CCC(c2nc(C3OCc4cccc(OS(=O)(=O)CCC(F)(F)F)c4CO3)cs2)CC1 (stereo not drawn) [Compound 1-30] | 100 | 100 | 100 |  |  | 
COc1ccc(OC(F)(F)F)c2c1COC(c1csc(C3CCN(C(=O)Cn4nc(C(F)(F)F)cc4C)CC3)n1)OC2 (stereo not drawn) [Compound 1-86] | 100 | 100 | 100 |  |  | 
CS(=O)(=O)Oc1ccc([N+](=O)[O-])c2c1COC(c1csc(C3CCN(C(=O)Cc4cc(Cl)ccc4Cl)CC3)n1)OC2 (stereo not drawn) [Compound 2-34] | 100 | 100 | 90 |  |  | 
Cc1cc(OS(C)(=O)=O)c2c(c1C)COC(c1csc(C3CCN(C(=O)Cn4nc(C(F)F)cc4C(F)F)CC3)n1)OC2 (stereo not drawn) [Compound 1-121] | 100 | 100 | 100 |  |  | 
COc1ccc([N+](=O)[O-])c2c1COC(c1csc(C3CCN(C(=O)Cc4cc(C)ccc4C)CC3)n1)OC2 (stereo not drawn) [Compound 2-9] | 100 | 100 | 100 |  |  | 
CS(=O)(=O)Oc1ccc(I)c2c1COC(c1csc(C3CCN(C(=O)Cn4nc(C(F)(F)F)cc4C(F)(F)F)CC3)n1)OC2 (stereo not drawn) [Compound 1-129, 4-[4-(6-iodo-9-methylsulfonyloxy-1,5-dihydro-3H-2,4-benzodioxepin-3-yl)-2-thiazolyl]-1-[2-[3,5-bis(trifluoromethyl)-1H-pyrazole-1-yl]acetyl]piperidine] |  |  |  | 100% | 100% | 100%
COc1ccc(Br)c2c1COC(c1csc(C3CCN(C(=O)Cc4cc(C)ccc4C)CC3)n1)OC2 (stereo not drawn) [Compound 2-24] | 100 | 100 | 100 |  |  | 
